Laboratory results taken from PubChem BioAssay (NCI).
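Grown in 96-well plates, cells were treated for 48 hours with each compound at five concentrations. Insufficient inhibition: endpoint recorded as highest concentration tested. Definition used: TGI = concentration required for complete inhibition of growth.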 Where a SMILES comes first, the peptide text is derived from it. [ ]: non-standard residue; d: D form. The star is where a group is joined. Phe(2-OMe) = COc1ccccc1C[CH](N)C(=O)O; Cbz = O=C(OCc1ccccc1)*; OBn = c1ccc(CO*)cc1

Columns and labels:
Experiment in all cases: NCI tumour cell line growth inhibition, 48 h
EKVX NSCLC = test system: EKVX NSCLC
BT-549 breast = test system: BT-549 breast
MDA-MB-231 breast = test system: MDA-MB-231 breast
SF-295 CNS = test system: SF-295 CNS
PC-3 prostate = test system: PC-3 prostate
HOP-92 NSCLC = test system: HOP-92 NSCLC
SNB-19 CNS = test system: SNB-19 CNS
A498 renal = test system: A498 renal
HCT-116 colon = test system: HCT-116 colon
MDA-N = test system: MDA-N
UACC-62 melanoma = test system: UACC-62 melanoma
NCI-H23 lung = test system: NCI-H23 lung
KM12 colon = test system: KM12 colon
SK-OV-3 ovarian = test system: SK-OV-3 ovarian
MALME-3M melanoma = test system: MALME-3M melanoma
A549 NSCLC = test system: A549 NSCLC
SK-MEL-28 melanoma = test system: SK-MEL-28 melanoma
IGROV1 ovarian = test system: IGROV1 ovarian
MDA-MB-435 = test system: MDA-MB-435
HCC-2998 colon = test system: HCC-2998 colon
RXF 393 renal = test system: RXF 393 renal
HCT-15 colon = test system: HCT-15 colon
786-0 renal = test system: 786-0 renal
HL-60(TB) leukemia = test system: HL-60(TB) leukemia
TK-10 renal = test system: TK-10 renal
ACHN renal = test system: ACHN renal
NCI-H522 lung = test system: NCI-H522 lung
SW-620 colon = test system: SW-620 colon
SR leukemia = test system: SR leukemia
UO-31 renal = test system: UO-31 renal
MCF7 breast = test system: MCF7 breast
M14 melanoma = test system: M14 melanoma
OVCAR-8 ovarian = test system: OVCAR-8 ovarian
SNB-75 CNS = test system: SNB-75 CNS
K-562 leukemia = test system: K-562 leukemia
NCI-H226 lung = test system: NCI-H226 lung
UACC-257 melanoma = test system: UACC-257 melanoma
CAKI-1 renal = test system: CAKI-1 renal
DU-145 prostate = test system: DU-145 prostate
SK-MEL-5 melanoma = test system: SK-MEL-5 melanoma
MOLT-4 leukemia = test system: MOLT-4 leukemia
OVCAR-3 ovarian = test system: OVCAR-3 ovarian
NCI/ADR-RES ovarian = test system: NCI/ADR-RES ovarian
NCI-H460 lung = test system: NCI-H460 lung
LOX IMVI melanoma = test system: LOX IMVI melanoma
COLO 205 colon = test system: COLO 205 colon
OVCAR-5 ovarian = test system: OVCAR-5 ovarian
U251 CNS = test system: U251 CNS
OVCAR-4 ovarian = test system: OVCAR-4 ovarian
SF-539 CNS = test system: SF-539 CNS
CCRF-CEM leukemia = test system: CCRF-CEM leukemia
SK-MEL-2 melanoma = test system: SK-MEL-2 melanoma
RPMI-8226 leukemia = test system: RPMI-8226 leukemia
HS 578T breast = test system: HS 578T breast
SN12C renal = test system: SN12C renal
SF-268 CNS = test system: SF-268 CNS
HT29 colon = test system: HT29 colon
HOP-62 NSCLC = test system: HOP-62 NSCLC

CC1(C)OC(CCC#N)CN1C(=O)OCc1ccccc1 (stereo not given) was tested, and the TGI (EKVX NSCLC) was over 100 µM, the TGI (BT-549 breast) was over 100 µM and the TGI (MDA-MB-231 breast) was over 100 µM. For the same molecule, the TGI (SF-295 CNS) was over 100 µM, the TGI (PC-3 prostate) was over 100 µM and the TGI (HOP-92 NSCLC) was over 100 µM. The TGI (SNB-19 CNS) was over 100 µM, the TGI (A498 renal) was over 100 µM and the TGI (HCT-116 colon) was over 100 µM. It also gave a TGI (MDA-N) of over 100 µM, a TGI (UACC-62 melanoma) of over 100 µM and a TGI (NCI-H23 lung) of over 100 µM. It also gave a TGI (KM12 colon) of over 100 µM, a TGI (SK-OV-3 ovarian) of over 100 µM and a TGI (MALME-3M melanoma) of over 100 µM. It also gave a TGI (A549 NSCLC) of over 100 µM, a TGI (SK-MEL-28 melanoma) of over 100 µM and a TGI (IGROV1 ovarian) of over 100 µM. The TGI (MDA-MB-435) was over 100 µM, the TGI (HCC-2998 colon) was over 100 µM and the TGI (RXF 393 renal) was over 100 µM. The TGI (HCT-15 colon) was over 100 µM, the TGI (786-0 renal) was over 100 µM and the TGI (HL-60(TB) leukemia) was over 100 µM. For the same molecule, the TGI (TK-10 renal) was over 100 µM, the TGI (ACHN renal) was over 100 µM and the TGI (NCI-H522 lung) was over 100 µM. For the same molecule, the TGI (SW-620 colon) was over 100 µM, the TGI (SR leukemia) was over 100 µM and the TGI (UO-31 renal) was over 100 µM. The TGI (MCF7 breast) was over 100 µM, the TGI (M14 melanoma) was over 100 µM and the TGI (OVCAR-8 ovarian) was over 100 µM. The TGI (SNB-75 CNS) was over 100 µM, the TGI (K-562 leukemia) was over 100 µM and the TGI (NCI-H226 lung) was over 100 µM. For the same molecule, the TGI (UACC-257 melanoma) was over 100 µM, the TGI (CAKI-1 renal) was over 100 µM and the TGI (DU-145 prostate) was over 100 µM. It also gave a TGI (SK-MEL-5 melanoma) of over 100 µM, a TGI (MOLT-4 leukemia) of over 100 µM and a TGI (OVCAR-3 ovarian) of over 100 µM. It also gave a TGI (NCI/ADR-RES ovarian) of over 100 µM, a TGI (NCI-H460 lung) of over 100 µM and a TGI (LOX IMVI melanoma) of over 100 µM. The TGI (COLO 205 colon) was over 100 µM, the TGI (OVCAR-5 ovarian) was over 100 µM and the TGI (U251 CNS) was over 100 µM. For the same molecule, the TGI (OVCAR-4 ovarian) was over 100 µM, the TGI (SF-539 CNS) was over 100 µM and the TGI (CCRF-CEM leukemia) was over 100 µM. The TGI (SK-MEL-2 melanoma) was over 100 µM and the TGI (RPMI-8226 leukemia) was over 100 µM.
With O=Cc1cn(CCCCCn2cc(C=O)c3ccccc32)c2ccccc12 the TGI (EKVX NSCLC) was over 100 µM, the TGI (HS 578T breast) was 62.2 µM and the TGI (BT-549 breast) was over 100 µM. The TGI (MDA-MB-231 breast) was over 100 µM, the TGI (SF-295 CNS) was over 100 µM and the TGI (PC-3 prostate) was over 100 µM. For the same molecule, the TGI (HOP-92 NSCLC) was over 100 µM, the TGI (SNB-19 CNS) was over 100 µM and the TGI (HCT-116 colon) was over 100 µM. For the same molecule, the TGI (MDA-N) was over 100 µM, the TGI (UACC-62 melanoma) was over 100 µM and the TGI (NCI-H23 lung) was over 100 µM. It also gave a TGI (SK-OV-3 ovarian) of over 100 µM, a TGI (MALME-3M melanoma) of over 100 µM and a TGI (A549 NSCLC) of over 100 µM. It also gave a TGI (SN12C renal) of over 100 µM, a TGI (IGROV1 ovarian) of over 100 µM and a TGI (MDA-MB-435) of over 100 µM. For the same molecule, the TGI (RXF 393 renal) was over 100 µM, the TGI (HCT-15 colon) was over 100 µM and the TGI (786-0 renal) was over 100 µM. For the same molecule, the TGI (HL-60(TB) leukemia) was over 100 µM, the TGI (TK-10 renal) was over 100 µM and the TGI (ACHN renal) was over 100 µM. It also gave a TGI (NCI-H522 lung) of over 100 µM, a TGI (SW-620 colon) of over 100 µM and a TGI (SR leukemia) of over 100 µM. The TGI (UO-31 renal) was over 100 µM, the TGI (SF-268 CNS) was 72.6 µM and the TGI (M14 melanoma) was over 100 µM. For the same molecule, the TGI (OVCAR-8 ovarian) was over 100 µM, the TGI (NCI-H226 lung) was over 100 µM and the TGI (UACC-257 melanoma) was over 100 µM. For the same molecule, the TGI (CAKI-1 renal) was over 100 µM, the TGI (DU-145 prostate) was over 100 µM and the TGI (SK-MEL-5 melanoma) was over 100 µM. For the same molecule, the TGI (MOLT-4 leukemia) was over 100 µM, the TGI (OVCAR-3 ovarian) was over 100 µM and the TGI (NCI/ADR-RES ovarian) was over 100 µM. For the same molecule, the TGI (NCI-H460 lung) was 11.4 µM, the TGI (LOX IMVI melanoma) was over 100 µM and the TGI (COLO 205 colon) was over 100 µM. It also gave a TGI (OVCAR-5 ovarian) of 6.5 µM, a TGI (U251 CNS) of over 100 µM and a TGI (SF-539 CNS) of over 100 µM. The TGI (CCRF-CEM leukemia) was over 100 µM, the TGI (SK-MEL-2 melanoma) was over 100 µM and the TGI (RPMI-8226 leukemia) was over 100 µM. The TGI (HT29 colon) was over 100 µM.
For COC(=O)C(Cc1ccccc1OC)NC(=O)C(CC(=O)OCc1ccccc1)NC(=O)OCc1ccccc1 (stereo not given) (Cbz-Asp(OBn)-[Phe(2-OMe)]-OMe; configuration not given here), the TGI (EKVX NSCLC) was over 100 µM, the TGI (HS 578T breast) was over 100 µM and the TGI (BT-549 breast) was over 100 µM. For the same molecule, the TGI (PC-3 prostate) was over 100 µM, the TGI (HOP-92 NSCLC) was over 100 µM and the TGI (SNB-19 CNS) was over 100 µM. For the same molecule, the TGI (A498 renal) was over 100 µM, the TGI (HCT-116 colon) was over 100 µM and the TGI (HOP-62 NSCLC) was over 100 µM. For the same molecule, the TGI (MDA-N) was over 100 µM, the TGI (UACC-62 melanoma) was over 100 µM and the TGI (NCI-H23 lung) was over 100 µM. It also gave a TGI (KM12 colon) of over 100 µM, a TGI (MALME-3M melanoma) of over 100 µM and a TGI (A549 NSCLC) of over 100 µM. The TGI (SK-MEL-28 melanoma) was over 100 µM, the TGI (IGROV1 ovarian) was over 100 µM and the TGI (HCC-2998 colon) was over 100 µM. It also gave a TGI (RXF 393 renal) of over 100 µM, a TGI (786-0 renal) of over 100 µM and a TGI (HL-60(TB) leukemia) of over 100 µM. It also gave a TGI (TK-10 renal) of over 100 µM, a TGI (ACHN renal) of over 100 µM and a TGI (SW-620 colon) of over 100 µM. It also gave a TGI (SR leukemia) of 84.6 µM, a TGI (UO-31 renal) of over 100 µM and a TGI (MCF7 breast) of over 100 µM. For the same molecule, the TGI (M14 melanoma) was over 100 µM, the TGI (OVCAR-8 ovarian) was over 100 µM and the TGI (SNB-75 CNS) was over 100 µM. It also gave a TGI (K-562 leukemia) of over 100 µM, a TGI (NCI-H226 lung) of over 100 µM and a TGI (UACC-257 melanoma) of over 100 µM. For the same molecule, the TGI (SK-MEL-5 melanoma) was over 100 µM, the TGI (MOLT-4 leukemia) was over 100 µM and the TGI (NCI-H460 lung) was over 100 µM. The TGI (COLO 205 colon) was over 100 µM, the TGI (OVCAR-5 ovarian) was over 100 µM and the TGI (U251 CNS) was over 100 µM. The TGI (CCRF-CEM leukemia) was over 100 µM, the TGI (SK-MEL-2 melanoma) was over 100 µM and the TGI (RPMI-8226 leukemia) was over 100 µM. For the same molecule, the TGI (HT29 colon) was over 100 µM.
